Measurements: EP4725956A1, “MODIFIED POLYPEPTIDE AND USE THEREOF IN FIELD OF ANALGESIA” (Nanjing Anji Biotechnology Co., Ltd., priority 2023, dated 2024)
Positions of bridges follow the written chain, without caps; N, C: chain ends. Non-standard residues stand in square brackets, D forms with d. Residues, ends and D or L forms follow the SMILES beside them. Bip = N[C@@H](Cc1ccc(-c2ccccc2)cc1)C(=O)O; Hyp = O=C(O)[C@@H]1C[C@@H](O)CN1; Nle = CCCC[C@H](N)C(=O)O; Orn = NCCC[C@H](N)C(=O)O; Abu = CC[C@H](N)C(=O)O; Sar = CNCC(=O)O

Tests used:
[1] = In vitro plasma stability and predicted half-life (HPLC main peak area, Example 3); type: in vitro ADME; details: human plasma (EDTA anticoagulant), 37°C, sampled up to 24 h, predicted half-life calculated with Winolin
Protocol: The modified peptides in this study were designed with non-natural amino acid substitutions at certain non-essential positions to enhance peptide stability and improve druggability. Peptides were dissolved in deionized water to 2 mg/mL, then diluted with acetonitrile to 1 mg/mL and filtered through an organic membrane. 200 µL of the filtrate was transferred to an LC vial as the peptide control. 300 µL of human plasma (comprising EDTA as anticoagulant, Nanjing Senbeijia Biotechnology Co., Ltd., Lot No. SBJ-P-HU011-100 mL) was mixed with 300 µL acetonitrile, centrifuged at 4°C and 12,000 rpm for 5 minutes. The supernatant was filtered through an organic membrane, and 200 µL of the filtrate was transferred to an LC vial as the plasma blank control. For peptide samples, 10 mg of peptide was weighed mixed with 5 mL of human plasma and vortexed thoroughly. 300 µL of peptide-containing plasma was mixed with 300 µL acetonitrile, centrifuged at 4°C and 12,000 rpm for 5 minutes, and the supernatant was filtered through an organic membrane. 200 µL of the filtrate was transferred to an LC vial as the 0 min sample. Peptide-containing plasma was incubated in a 37°C water bath, and samples at other time points were collected using the same procedure as the 0 min sample. For peptides AJ003 and AJ003-1, the sampling time points were 0 min, 5 min, 10 min, 20 min, 30 min, 1 h, 2 h, 4 h, 6 h, 10 h, 12 h, and 24 h. For modified peptides AJ003-34, AJ003-35, AJ003-36, AJ003-37, AJ003-38, AJ003-39, AJ003-40, AJ003-41, and AJ003-42, the time points were 0 min, 10 min, 30 min, 1 h, 4 h, 6 h, 10 h, 12 h, and 24 h. All peptide sample series were analyzed by HPLC, recording the changes in main peak areas over plasma incubation time. Predicted in vitro half-lives were calculated using the pharmacokinetic software Winolin. Due to the presence of tautomers, AJ003 peak areas were difficult to integrate accurately over time. AJ003-1 is an analog of AJ003 in which the threonine at position 5 is substituted with D-threonine; its sequence differs from AJ003 by only one amino acid configuration. […] The in vitro plasma half-lives of modified peptides AJ003-34, AJ003-35, AJ003-36, AJ003-37, AJ003-38, AJ003-39, AJ003-40, AJ003-41, and AJ003-42 were 61.9 h, 45.3 h, 65.3 h, 71.0 h, 26.7 h, 43.0 h, 84.0 h, 30.0 h, and 61.4 h, respectively.

α7 nAChR = α7 nAChR (Homo sapiens, UniProt P36544); experiment: BLI (biolayer interferometry) affinity of peptides to α7 nAChR; type: binding; design: inferred from the 'similar' procedure on NTA sensors; details: NTA sensor, α7 nAChR 20 µg/mL, peptide 1.372-1000 nM in PBS
From the text: BLI is a label-free technology that converts optical interference signals occurring on the surface of BLI biosensors into real-time response signals. By monitoring the molecular binding process in real time, the system determines association rate constants (ka or kon), dissociation rate constants (kd or koff), and initial binding rates, and calculates affinity (KD) by fitting analysis. Here are the specific procedures: NTA sensors (Sartorius) were placed in a pre-wetting tray, which was then positioned in a black 96-well plate with 200 µL PBS per well. The NTA sensors were pre-wetted for at least 15 minutes. The target protein α9 nAChR was diluted in PBS to 5 µg/mL, with 200 µL added per well. Test peptides were dissolved in PBS and serially diluted threefold, with concentrations from high to low as 1000 nM, 333.3 nM, 111.1 nM, 37.04 nM, 12.35 nM, 4.115 nM, and 1.372 nM, with an additional well with PBS only as a zeroconcentration control. After equilibrating the instrument baseline, the NTA sensor was used to immobilize the target protein α9 nAChR. Once immobilization was complete, the baseline was re-equilibrated, followed by a 5-minute association and a 5-minute dissociation phase. Affinity measurements of the test peptides were conducted sequentially using the above procedure. The procedure for measuring peptide affinity to α7 nAChR was similar, except that the α7 nAChR concentration was 20 µg/mL. Tables 2 and 3 show the BLI-determined affinities of alanine-scan peptide analogs with target proteins, which identified sites on the parent peptide suitable for modification. Subsequently, single-site non-natural amino acid substituted peptides were evaluated by BLI for target protein affinity. Finally, multi-site combinatorial modified peptides were measured for affinity by BLI, leading to the selection of high-affinity peptides for further screen and drug development potential. Table 2 Test Results for Affinity of Modified Peptides to α9 nAChR

SMILES	half-life at 2 mg/mL [1]	Kd (α7 nAChR)
CC(C)C[C@H](NC(=O)[C@@H](NC(=O)[C@H]1CSSC[C@H](NC(=O)[C@H](CO)NC(=O)CN)C(=O)N[C@@H](CO)C(=O)N[C@H]([C@H](C)O)C(=O)N2CCC[C@H]2C(=O)N2CCC[C@H]2C(=O)N[C@@H](CO)C(=O)N1)C(C)C)C(=O)N[C@@H](Cc1ccc(O)cc1)C(=O)N[C@@H](CO)C(=O)O [AJ003-1, GSCS-(D-Thr)-PPS-(D-Cys)-VLYS (3,9 disulfide bond)] (H-GSCS[dT]PPS[dC]VLYS-OH; disulfide 3-9)	~10.8 h	–
CC(C)C[C@H](NC(=O)[C@@H](NC(=O)[C@H]1CSSC[C@H](NC(=O)[C@H](CO)NC(=O)CN)C(=O)N[C@@H](CO)C(=O)N[C@H]([C@H](C)O)C(=O)N2CCC[C@H]2C(=O)N2CCC[C@H]2C(=O)N[C@@H](CO)C(=O)N1)C(C)C)C(=O)N[C@@H](Cc1ccc(O)cc1)C(=O)N[C@@H](CO)C(N)=O [AJ003-4, GSCS-(D-Thr)-PPS-(D-Cys)-VLYS-NH2 (3,9 disulfide bond)] (H-GSCS[dT]PPS[dC]VLYS-NH2; disulfide 3-9)	–	339 nM
CC(C)C[C@H](NC(=O)[C@@H](NC(=O)[C@H]1CSSC[C@@H](NC(=O)[C@H](CO)NC(=O)CN)C(=O)N[C@@H](CO)C(=O)N[C@H]([C@H](C)O)C(=O)N2CCC[C@H]2C(=O)N2CCC[C@H]2C(=O)N[C@@H](CO)C(=O)N1)C(C)C)C(=O)N[C@@H](Cc1ccc(O)cc1)C(=O)N[C@@H](CO)C(=O)O [AJ003-5, GS-(D-Cys)-S-(D-Thr)-PPS-(D-Cys)-VLYS (3,9 disulfide bond)] (H-GS[dC]S[dT]PPS[dC]VLYS-OH; disulfide 3-9)	–	400 nM
CC(C)C[C@@H](NC(=O)[C@H](NC(=O)[C@H]1CSSC[C@@H](NC(=O)[C@@H](CO)NC(=O)CN)C(=O)N[C@H](CO)C(=O)N[C@H]([C@H](C)O)C(=O)N2CCC[C@@H]2C(=O)N2CCC[C@@H]2C(=O)N[C@H](CO)C(=O)N1)C(C)C)C(=O)N[C@H](Cc1ccc(O)cc1)C(=O)N[C@H](CO)C(=O)O [AJ003-6] (H-G[dS][dC][dS][dT][dP][dP][dS][dC][dV][dL][dY][dS]-OH; disulfide 3-9)	–	532 nM
CNCC(=O)N[C@@H](CO)C(=O)N[C@H]1CSSC[C@H](C(=O)N[C@H](C(=O)N[C@@H](CC(C)C)C(=O)N[C@@H](Cc2ccc(O)cc2)C(=O)N[C@@H](CO)C(=O)O)C(C)C)NC(=O)[C@H](CO)NC(=O)[C@@H]2CCCN2C(=O)[C@@H]2CCCN2C(=O)[C@@H]([C@H](C)O)NC(=O)[C@H](CO)NC1=O [AJ003-8, Sar-SCS-(D-Thr)-PPS-(D-Cys)-VLYS (3,9 disulfide bond)] (H-[Sar]SCS[dT]PPS[dC]VLYS-OH; disulfide 3-9)	–	6420 nM
CC[C@H](NC(=O)[C@@H](NC(=O)[C@H]1CSSC[C@H](NC(=O)[C@H](CO)NC(=O)CN)C(=O)N[C@@H](CO)C(=O)N[C@H]([C@H](C)O)C(=O)N2CCC[C@H]2C(=O)N2CCC[C@H]2C(=O)N[C@@H](CO)C(=O)N1)C(C)C)C(=O)N[C@@H](Cc1ccc(O)cc1)C(=O)N[C@@H](CO)C(=O)O [AJ003-28, GSCS-(D-Thr)-PPS-(D-Cys)-V-ABu-YS (3,9 disulfide bond)] (H-GSCS[dT]PPS[dC]V[Abu]YS-OH; disulfide 3-9)	–	690 nM
CCCC[C@H](NC(=O)[C@@H](NC(=O)[C@H]1CSSC[C@H](NC(=O)[C@H](CO)NC(=O)CN)C(=O)N[C@@H](CO)C(=O)N[C@H]([C@H](C)O)C(=O)N2CCC[C@H]2C(=O)N2CCC[C@H]2C(=O)N[C@@H](CO)C(=O)N1)C(C)C)C(=O)N[C@@H](Cc1ccc(O)cc1)C(=O)N[C@@H](CO)C(=O)O [AJ003-29, GSCS-(D-Thr)-PPS-(D-Cys)-V-Nle-YS (3,9 disulfide bond)] (H-GSCS[dT]PPS[dC]V[Nle]YS-OH; disulfide 3-9)	–	674 nM
CC(C)C[C@H](NC(=O)[C@@H](NC(=O)[C@H]1CSSC[C@H](NC(=O)[C@H](CO)NC(=O)CN)C(=O)N[C@@H](CO)C(=O)N[C@H]([C@H](C)O)C(=O)N2CCC[C@H]2C(=O)N2CCC[C@H]2C(=O)N[C@@H](CO)C(=O)N1)C(C)C)C(=O)N[C@@H](Cc1ccc(-c2ccccc2)cc1)C(=O)N[C@@H](CO)C(=O)O [AJ003-32, GSCS-(D-Thr)-PPS-(D-Cys)-VL-Bip-S (3,9 disulfide bond)] (H-GSCS[dT]PPS[dC]VL[Bip]S-OH; disulfide 3-9)	–	375 nM
CC(C)C[C@H](NC(=O)[C@@H](NC(=O)[C@H]1CSSC[C@H](NC(=O)[C@H](CO)NC(=O)CN)C(=O)N[C@@H](CO)C(=O)N[C@H]([C@H](C)O)C(=O)N2CCC[C@H]2C(=O)N2CCC[C@H]2C(=O)N[C@@H](CO)C(=O)N1)C(C)C)C(=O)N[C@@H](Cc1ccc(O)cc1)C(=O)N[C@@H](CCCN)C(N)=O [AJ003-33, GSCS-(D-Thr)-PPS-(D-Cys)-VLY-Orn-NH2 (3,9 disulfide bond)] (H-GSCS[dT]PPS[dC]VLY[Orn]-NH2; disulfide 3-9)	–	400 nM
CCCC[C@H](NC(=O)[C@@H](NC(=O)[C@H]1CSSC[C@H](NC(=O)[C@H](CO)NC(=O)CN)C(=O)N[C@@H](CO)C(=O)N[C@H]([C@H](C)O)C(=O)N2C[C@H](O)C[C@H]2C(=O)N2C[C@H](O)C[C@H]2C(=O)N[C@@H](C)C(=O)N1)C(C)C)C(=O)N[C@@H](Cc1ccc(-c2ccccc2)cc1)C(=O)N[C@@H](CCCN)C(N)=O [AJ003-35, GSCS-(D-Thr)-Hyp-Hyp-A-(D-Cys)-V-Nle-Bip-Orn-NH2 (3,9 disulfide bond)] (H-GSCS[dT][Hyp][Hyp]A[dC]V[Nle][Bip][Orn]-NH2; disulfide 3-9)	45.3 h	142 nM
CCCC[C@H](NC(=O)[C@@H](NC(=O)[C@H]1CSSC[C@H](NC(=O)[C@H](CO)NC(=O)CN)C(=O)N[C@@H](CO)C(=O)N[C@H]([C@H](C)O)C(=O)N2C[C@H](O)C[C@H]2C(=O)N2C[C@H](O)C[C@H]2C(=O)N[C@@H](CO)C(=O)N1)C(C)C)C(=O)N[C@@H](Cc1ccccc1)C(=O)N[C@@H](CCCN)C(N)=O [AJ003-37, GSCS-(D-Thr)-Hyp-Hyp-S-(D-Cys)-V-Nle-F-Orn-NH2 (3,9 disulfide bond)] (H-GSCS[dT][Hyp][Hyp]S[dC]V[Nle]F[Orn]-NH2; disulfide 3-9)	71 h	68.7 nM
CCCC[C@H](NC(=O)[C@@H](NC(=O)[C@H]1CSSC[C@H](NC(=O)[C@H](CO)NC(=O)CN)C(=O)N[C@@H](CO)C(=O)N[C@H]([C@H](C)O)C(=O)N2C[C@H](O)C[C@H]2C(=O)N2C[C@H](O)C[C@H]2C(=O)N[C@@H](C)C(=O)N1)C(C)C)C(=O)N[C@@H](Cc1ccccc1)C(=O)N[C@@H](CCCN)C(N)=O [AJ003-38, GSCS-(D-Thr)-Hyp-Hyp-A-(D-Cys)-V-Nle-F-Orn-NH2 (3,9 disulfide bond)] (H-GSCS[dT][Hyp][Hyp]A[dC]V[Nle]F[Orn]-NH2; disulfide 3-9)	26.7 h	187 nM
